# Literature values, collected in patent publication US20070161566A1, “Method of treating multiple sclerosis” (Teva Pharmaceutical Industries, Ltd., priority 2006, published 2007).
# Columns and labels:
# MS patients = details: 20 mg/day subcutaneous dose
# [1] = test system: chronic progressive MS patients; details: 15 mg twice per day (30 mg per day); up to 24 months
substance,measurement,setting,value
"L-glutamic acid polymer with L-alanine, L-lysine, L-tyrosine, acetate (salt) [GA]",total number of enhancing lesions as measured by MRI,MS patients,reduce the total number of enhancing lesions
same,arrest or reversal of disease progress vs placebo,[1],did not produce statistically significant difference
